Measurements published in PMC10568017, “A quest for the stereo-electronic requirements for selective agonism for the neurotrophin receptors TrkA and TrkB in 17-spirocyclic-dehydroepiandrosterone derivatives” (Frontiers in Molecular Neuroscience, 2023).

Tests used:
[1] = Metabolic stability in pooled human liver microsomes; type: in vitro ADME; conditions: 1 μM
Procedure, shortened: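 Test compounds at 1 µM incubated in triplicate with pooled human liver microsomes (0.5 mg/mL) and ~1 mM NADPH at 37 °C, stopped after 60 min. Parent loss classed very slow (<5%) to very fast (>80%); metabolism rated high, moderate or low by t1/2 cut-offs of 30 and 60 min.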

[2] = system: NIH-3T3 TrkB-expressing cell line; assay: CellTox Green cytotoxicity assay in NIH-3T3 cells stable transfected with TrkB under serum deprivation; type: cell-based; conditions: compound 1 μM, 24 h, after 24 h serum starvation; BDNF 500 ng/mL as control
Procedure, shortened: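 TrkB-transfected NIH-3T3 cells were serum-starved for 24 h, then exposed 24 h to compounds at 1 μM or BDNF 500 ng/mL as control. Dead cells stained with CellTox Green and total cells with Hoechst 33342, imaged by microscopy. CellTox-positive counts normalised to total cells per image.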

## C[C@]12CC[C@H](O)CC1=CC[C@@H]1[C@@H]2CC[C@@]2(C)[C@H]1CC[C@@]21CC=C(Cn2cc(Cc3ccccc3)nn2)CO1 [ENT-A055, (3S,17R)-5′-[(4-benzyl-1H-1,2,3-triazol-1-yl)methyl]-3′,6′-dihydrospiro[5-androstene-17,2′-pyran]-3-ol]
[1]; pooled human liver microsomes 0.5 mg/mL, t = 60 min, NADPH
  residual of time zero: > 95%
[1]; pooled human liver microsomes, 60 min
  parent structure loss (depletion) class: very slow (very slow (<5%))
[2]
  protection of NIH-3T3-TrkB cells from serum deprivation-induced cell death (CellTox): significantly reduce cell death levels compared to the serum-free control, comparable to the BDNF action
